Measured values reported in patent US11752122B2 (OKLAHOMA MEDICAL RESEARCH FOUNDATION, priority 2018, dated 2023).
Entries after “also recorded” stand apart in the source; their conditions may differ. Read-outs that look alike come from different tables or passages of the source.

Experiments:
TGF-β1 = biological target: T1, TGF-β1 (Mus musculus, UniProt P04202); assay: Shear-dependent TGF-β1 activation in platelet-rich plasma from NAC-treated mice (ELISA); format: in vivo; details: PRP from NAC-treated vs control mice, shear force of 1,800 s^−1 for 2 hours, ELISA (FIG. 4A)
T1 construct: Active TGF-β1 levels in platelet-rich plasma from NAC-treated (n=6) and -untreated (n=8) mice after in vitro stirring; from tissue; host or cells: mouse platelet-rich plasma (blood)
T1 sequence (P04202 30-278 limits assumed): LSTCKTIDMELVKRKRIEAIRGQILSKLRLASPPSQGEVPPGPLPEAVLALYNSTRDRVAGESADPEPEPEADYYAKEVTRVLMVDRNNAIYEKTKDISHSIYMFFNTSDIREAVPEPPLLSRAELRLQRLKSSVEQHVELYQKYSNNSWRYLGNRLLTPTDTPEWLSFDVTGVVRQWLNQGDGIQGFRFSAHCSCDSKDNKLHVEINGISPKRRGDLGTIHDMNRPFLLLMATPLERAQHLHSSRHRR
T1 sequence (P04202 279-390 limits assumed): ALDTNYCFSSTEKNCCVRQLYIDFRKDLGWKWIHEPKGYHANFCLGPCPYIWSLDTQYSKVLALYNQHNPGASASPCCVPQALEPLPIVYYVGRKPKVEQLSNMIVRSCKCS
T1 sequence (Q8CG19 24-1712 partner): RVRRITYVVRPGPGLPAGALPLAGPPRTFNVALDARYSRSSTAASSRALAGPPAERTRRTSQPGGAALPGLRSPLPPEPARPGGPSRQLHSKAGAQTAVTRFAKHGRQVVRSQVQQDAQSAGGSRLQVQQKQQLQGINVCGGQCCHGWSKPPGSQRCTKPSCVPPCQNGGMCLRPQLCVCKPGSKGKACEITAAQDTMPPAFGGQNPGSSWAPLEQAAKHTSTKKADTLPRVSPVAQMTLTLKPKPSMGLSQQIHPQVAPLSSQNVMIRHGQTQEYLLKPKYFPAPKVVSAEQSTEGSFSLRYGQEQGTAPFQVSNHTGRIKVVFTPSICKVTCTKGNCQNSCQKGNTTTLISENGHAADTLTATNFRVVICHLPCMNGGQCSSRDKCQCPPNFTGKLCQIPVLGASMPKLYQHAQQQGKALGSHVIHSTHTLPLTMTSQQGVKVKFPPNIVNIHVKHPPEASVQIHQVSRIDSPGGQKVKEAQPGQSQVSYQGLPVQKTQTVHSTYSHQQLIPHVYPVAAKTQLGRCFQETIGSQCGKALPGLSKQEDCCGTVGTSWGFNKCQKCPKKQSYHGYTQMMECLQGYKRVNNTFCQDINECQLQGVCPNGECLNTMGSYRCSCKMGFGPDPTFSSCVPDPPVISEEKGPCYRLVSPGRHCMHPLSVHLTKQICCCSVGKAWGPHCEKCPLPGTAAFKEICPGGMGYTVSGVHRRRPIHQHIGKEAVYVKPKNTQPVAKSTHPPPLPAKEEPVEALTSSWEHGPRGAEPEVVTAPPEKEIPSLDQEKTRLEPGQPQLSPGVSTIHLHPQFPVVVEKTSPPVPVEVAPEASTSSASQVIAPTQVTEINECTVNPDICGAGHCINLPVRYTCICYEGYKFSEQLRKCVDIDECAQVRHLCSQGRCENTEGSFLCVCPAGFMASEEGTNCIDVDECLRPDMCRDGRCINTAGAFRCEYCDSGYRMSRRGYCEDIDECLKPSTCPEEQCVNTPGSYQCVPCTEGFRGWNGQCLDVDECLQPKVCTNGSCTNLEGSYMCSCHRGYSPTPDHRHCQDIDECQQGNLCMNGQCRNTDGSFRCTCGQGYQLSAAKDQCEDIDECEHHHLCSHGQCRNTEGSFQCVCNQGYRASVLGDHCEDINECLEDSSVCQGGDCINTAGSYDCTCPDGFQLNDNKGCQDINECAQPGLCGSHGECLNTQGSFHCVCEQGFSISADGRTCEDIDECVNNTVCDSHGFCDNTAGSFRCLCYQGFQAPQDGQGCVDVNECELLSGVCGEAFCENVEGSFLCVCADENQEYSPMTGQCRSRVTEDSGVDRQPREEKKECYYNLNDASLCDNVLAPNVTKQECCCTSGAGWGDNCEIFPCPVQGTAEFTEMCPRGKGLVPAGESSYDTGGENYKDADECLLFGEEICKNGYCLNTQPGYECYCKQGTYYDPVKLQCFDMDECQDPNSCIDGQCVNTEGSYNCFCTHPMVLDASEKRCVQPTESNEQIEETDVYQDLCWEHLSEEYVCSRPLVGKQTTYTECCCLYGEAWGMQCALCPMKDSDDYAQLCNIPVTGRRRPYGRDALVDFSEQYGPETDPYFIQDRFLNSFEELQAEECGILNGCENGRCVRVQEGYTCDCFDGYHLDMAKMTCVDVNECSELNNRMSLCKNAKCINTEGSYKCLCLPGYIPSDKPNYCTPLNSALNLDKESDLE

[1] = test system: ascending aortic constriction (AAC) model; assay: Cardiac fibrosis in ascending aortic constriction (AAC) model; format: in vivo, mice; details: high shear pressure overload AAC model, NAC treatment (data not shown)
Excerpt: Ascending Aortic Constriction. Ascending aortic constriction was induced by controlled constriction of the ascending aorta as described previously 26. Briefly, mice were anesthetized with 1.5% isoflurane and the ascending aorta was surgically exposed by a mid-thorax incision. A 2 7-0 suture was placed around both the aorta and an adjacent 27-gauge (0.41 mm OD) needle proximal to the origin of the innominate artery. […] Mice were sacrificed and tissues collected 1 month after the surgery.

[2] = cited from earlier work
LDLR mice on HFD = details: for WSS (wall shear stress) / fractional valve opening: LDLR mice on HFD, vs untreated control mice
Excerpt: Mice. Hypercholesterolemic mice deficient for low-density lipoprotein receptors (Ldlr−/−), which only express ApoB-100 (Ldlr−/−Apob100/100, LDLR), were obtained from Jackson Laboratories (B6; 129SLdlrtm1HerApobtm2Sgy/J, stock no. 003000). WT C57bl/6 mice were also obtained from the Jackson Laboratory (stock no. 000664) and served as controls. TGF-β1^platelet-KO-LDLR mice (Pf4Cre+Tgfb1f/f;Ldlr−/−Apob100/100;) and TGF-β1^flox-LDLR littermate controls (Tgfb1f/f;Ldlr−/−Apob100/100) were generated by crossing LDLR mice with Pf4Cre+;Tgfb1f/f mice, as shown in FIGS. 7A-B and Supplemental Table 5. […] The inventor crossed Tie2Cre mice (stock no. 008863, Jackson Laboratories) with tdTomato lox-stop-lox mice (stock no. 007909, Jackson Laboratories) to generate Tie2Cre;tdTomato mice that express tdTomato only under Cre activity. All mice were housed in a controlled environment (23±2° C.; 12 hours light/dark cycles) and fed either a chow diet (CD) (PicoLab® Rodent Diet 20, 5053) or a customized high fat diet (HFD) (Harlan Teklad, TD.9612102. containing 21% milk fat (MF), 1.25% Cholesterol) in powdered form in a glass jar with perforated metal strainer (DYETS, Braintree Scientific Inc.). The Oklahoma Medical Research Foundation's Institutional Animal Care and Usage Committee approved all procedures.
Experimental Design. A total of 118 LDLR (58 Males, 60 Females) and 20 WT mice (10 Males, 10 Females) were used for this study. Half of the mice (6 weeks old) were switched to HFD and maintained for up to 9 months. Progression and severity (mild/moderate/severe) of AS were monitored at 0, 3, 6 and 9 months by echocardiography using non-invasive ultrasound imaging techniques. Five mice per cage (total of 25 males, 15 females) were treated with 2% N-acetylcysteine (NAC) (Acros Organics, 160280010) in drinking water. NAC was prepared in reverse osmosis water and its pH was adjusted to 7.4 with NaOH. Water was replaced with a fresh solution every week.
Echocardiography. Mice were anesthetized with Isoflurane (3-5% inhalation) in an induction chamber. Mice that appeared to be sick due to severe stenosis or that were underweight were anesthetized using a lower isoflurane level to prevent adverse or lethal effects from the anesthetic. Once visibly anesthetized, isoflurane was reduced to 0.5%-2% and the mouse was moved from the chamber to a nose-cone on a heated platform set at 40° C. to maintain body temperature (35±2° C.). Heavier mice were maintained at higher isoflurane levels as they appeared less sensitive to its anesthetic effects. All four limbs were taped to physiological electrodes and a rectal temperature probe was inserted. Electrode gel was used to enhance the physiologic readings. To ensure accuracy of all echo measurements, physiological parameters were monitored and recordings were only taken if the heart rate was 430-550 beats per minute, respiration was 20-100 breaths per minute, and body temperature was close to 37° C. (35±2° C.).
Measurement of AS parameters using a modified view of ultrasound imaging. Echocardiography is the gold standard non-invasive method to measure AS in humans. However, the mouse heart rate is 10-times faster (500 to 600 beats per minute), making the acquisition of high-resolution images of the very thin non-diseased valves challenging. […] LVOT was measured from the long-axis view and was used to calculate AV pressure and normalize the cusp separation (Lindman et al., 2016; Meyer et al., 2012). This view was obtained by tilting the lower left corner of the platform downward by about 30° and angling the transducer up such that it interfaced with the chest cavity by about 45°.

[3] = test system: TGF-β1platelet-KO-LDLR mice on HFD; assay: Aortic stenosis progression in TGF-β1platelet-KO-LDLR mice on HFD, echocardiography; format: in vivo; details: TGF-β1platelet-KO-LDLR mice on HFD treated with NAC
Excerpt: Mice. Hypercholesterolemic mice deficient for low-density lipoprotein receptors (Ldlr−/−), which only express ApoB-100 (Ldlr−/−Apob100/100, LDLR), were obtained from Jackson Laboratories (B6; 129SLdlrtm1HerApobtm2Sgy/J, stock no. 003000). WT C57bl/6 mice were also obtained from the Jackson Laboratory (stock no. 000664) and served as controls. TGF-β1^platelet-KO-LDLR mice (Pf4Cre+Tgfb1f/f;Ldlr−/−Apob100/100;) and TGF-β1^flox-LDLR littermate controls (Tgfb1f/f;Ldlr−/−Apob100/100) were generated by crossing LDLR mice with Pf4Cre+;Tgfb1f/f mice, as shown in FIGS. 7A-B and Supplemental Table 5. […]
Experimental Design. […] Progression and severity (mild/moderate/severe) of AS were monitored at 0, 3, 6 and 9 months by echocardiography using non-invasive ultrasound imaging techniques. […]
Echocardiography. […] Electrode gel was used to enhance the physiologic readings. To ensure accuracy of all echo measurements, physiological parameters were monitored and recordings were only taken if the heart rate was 430-550 beats per minute, respiration was 20-100 breaths per minute, and body temperature was close to 37° C. […]
Measurement of AS parameters using a modified view of ultrasound imaging. […] LVOT was measured from the long-axis view and was used to calculate AV pressure and normalize the cusp separation (Lindman et al., 2016; Meyer et al., 2012). […]

[4] = LDLR HFD + NAC (2-5 Months), total n=8
[5] = LDLR HFD + NAC (3-5 Months), total n=11
[6] = LDLR HFD + NAC (5-6 Months), total n=7

In the case of `CC(=O)N[C@@H](CS)C(=O)O` [NAC, N-acetylcysteine], the “TGF-β1 activation (active TGF-β1 levels) in PRP” value (TGF-β1) is given as “much lower”, the cardiac fibrosis [1] is given as “inhibits cardiac fibrosis” and the Urine excretion ([2]; in vivo) is given as 22-30%. For the same molecule, the metabolism ([2]; liver) was “extensively liver metabolized”, the “Penetrance, fractional valve opening: Mild Stenosis 0.75-0.85, number of mice” value (LDLR mice on HFD; [4]) was 1 and the “Penetrance, fractional valve opening: Mild Stenosis 0.75-0.85, percent of mice” value (LDLR mice on HFD; [4]) was “(12%)”. For the same molecule, the “Penetrance, fractional valve opening: Moderate Stenosis 0.6-0.75, number of mice” value (LDLR mice on HFD; [4]) was 2, the “Penetrance, fractional valve opening: Moderate Stenosis 0.6-0.75, percent of mice” value (LDLR mice on HFD; [4]) was “(25%)” and the “Penetrance, fractional valve opening: No Stenosis >0.85, number of mice” value (LDLR mice on HFD; [4]) was 0. The “Penetrance, fractional valve opening: No Stenosis >0.85, percent of mice” value (LDLR mice on HFD; [4]) was “(0%)”, the “Penetrance, fractional valve opening: Severe Stenosis <0.6, number of mice” value (LDLR mice on HFD; [4]) was 5 and the “Penetrance, wall shear stress: Mild Stenosis 350-525 dyn/cm^2, number of mice” value (LDLR mice on HFD; [4]) was 0. The “Penetrance, wall shear stress: Mild Stenosis 350-525 dyn/cm^2, percent of mice” value (LDLR mice on HFD; [4]) was “(0%)”, the “Penetrance, wall shear stress: Moderate Stenosis 525-700 dyn/cm^2, number of mice” value (LDLR mice on HFD; [4]) was 3 and the “Penetrance, wall shear stress: Moderate Stenosis 525-700 dyn/cm^2, percent of mice” value (LDLR mice on HFD; [4]) was “(37%)”. The “Penetrance, wall shear stress: No Stenosis <350 dyn/cm^2, number of mice” value (LDLR mice on HFD; [4]) was 0, the “Penetrance, wall shear stress: No Stenosis <350 dyn/cm^2, percent of mice” value (LDLR mice on HFD; [4]) was “(0%)” and the “Penetrance, wall shear stress: Severe Stenosis >700 dyn/cm^2, number of mice” value (LDLR mice on HFD; [4]) was 6. For the same molecule, the “Penetrance, wall shear stress: Severe Stenosis >700 dyn/cm^2, percent of mice” value (LDLR mice on HFD; [4]) was “(63%)”, the “Penetrance, fractional valve opening: Mild Stenosis 0.75-0.85, number of mice” value (LDLR mice on HFD; [5]) was 2 and the “Penetrance, fractional valve opening: Mild Stenosis 0.75-0.85, percent of mice” value (LDLR mice on HFD; [5]) was “(16%)”. For the same molecule, the “Penetrance, fractional valve opening: Moderate Stenosis 0.6-0.75, number of mice” value (LDLR mice on HFD; [5]) was 7, the “Penetrance, fractional valve opening: Moderate Stenosis 0.6-0.75, percent of mice” value (LDLR mice on HFD; [5]) was “(64%)” and the “Penetrance, fractional valve opening: No Stenosis >0.85, number of mice” value (LDLR mice on HFD; [5]) was 0. The “Penetrance, fractional valve opening: No Stenosis >0.85, percent of mice” value (LDLR mice on HFD; [5]) was “(0%)”, the “Penetrance, fractional valve opening: Severe Stenosis <0.6, number of mice” value (LDLR mice on HFD; [5]) was 2 and the “Penetrance, fractional valve opening: Severe Stenosis <0.6, percent of mice” value (LDLR mice on HFD; [5]) was “(18%)”. For the same molecule, the “Penetrance, wall shear stress: Mild Stenosis 350-525 dyn/cm^2, number of mice” value (LDLR mice on HFD; [5]) was 4, the “Penetrance, wall shear stress: Mild Stenosis 350-525 dyn/cm^2, percent of mice” value (LDLR mice on HFD; [5]) was “(36%)” and the “Penetrance, wall shear stress: Moderate Stenosis 525-700 dyn/cm^2, number of mice” value (LDLR mice on HFD; [5]) was 5. The “Penetrance, wall shear stress: Moderate Stenosis 525-700 dyn/cm^2, percent of mice” value (LDLR mice on HFD; [5]) was “(46%)”, the “Penetrance, wall shear stress: No Stenosis <350 dyn/cm^2, number of mice” value (LDLR mice on HFD; [5]) was 0 and the “Penetrance, wall shear stress: No Stenosis <350 dyn/cm^2, percent of mice” value (LDLR mice on HFD; [5]) was “(0%)”. For the same molecule, the “Penetrance, wall shear stress: Severe Stenosis >700 dyn/cm^2, number of mice” value (LDLR mice on HFD; [5]) was 2, the “Penetrance, wall shear stress: Severe Stenosis >700 dyn/cm^2, percent of mice” value (LDLR mice on HFD; [5]) was “(18%)” and the “Penetrance, fractional valve opening: Mild Stenosis 0.75-0.85, number of mice” value (LDLR mice on HFD; [6]) was 3. The “Penetrance, fractional valve opening: Mild Stenosis 0.75-0.85, percent of mice” value (LDLR mice on HFD; [6]) was “(43%)”, the “Penetrance, fractional valve opening: Moderate Stenosis 0.6-0.75, number of mice” value (LDLR mice on HFD; [6]) was 4 and the “Penetrance, fractional valve opening: Moderate Stenosis 0.6-0.75, percent of mice” value (LDLR mice on HFD; [6]) was “(57%)”. For the same molecule, the “Penetrance, fractional valve opening: No Stenosis >0.85, number of mice” value (LDLR mice on HFD; [6]) was 0, the “Penetrance, fractional valve opening: No Stenosis >0.85, percent of mice” value (LDLR mice on HFD; [6]) was “(0%)” and the “Penetrance, fractional valve opening: Severe Stenosis <0.6, number of mice” value (LDLR mice on HFD; [6]) was 0. The “Penetrance, fractional valve opening: Severe Stenosis <0.6, percent of mice” value (LDLR mice on HFD; [6]) was “(0%)”, the “Penetrance, wall shear stress: Mild Stenosis 350-525 dyn/cm^2, number of mice” value (LDLR mice on HFD; [6]) was 3 and the “Penetrance, wall shear stress: Mild Stenosis 350-525 dyn/cm^2, percent of mice” value (LDLR mice on HFD; [6]) was “(43%)”. The “Penetrance, wall shear stress: Moderate Stenosis 525-700 dyn/cm^2, number of mice” value (LDLR mice on HFD; [6]) was 4, the “Penetrance, wall shear stress: Moderate Stenosis 525-700 dyn/cm^2, percent of mice” value (LDLR mice on HFD; [6]) was “(57%)” and the “Penetrance, wall shear stress: No Stenosis <350 dyn/cm^2, number of mice” value (LDLR mice on HFD; [6]) was 0. For the same molecule, the “Penetrance, wall shear stress: No Stenosis <350 dyn/cm^2, percent of mice” value (LDLR mice on HFD; [6]) was “(0%)”, the “Penetrance, wall shear stress: Severe Stenosis >700 dyn/cm^2, number of mice” value (LDLR mice on HFD; [6]) was 0 and the “Penetrance, wall shear stress: Severe Stenosis >700 dyn/cm^2, percent of mice” value (LDLR mice on HFD; [6]) was “(0%)”. The “WSS (wall shear stress)” value (LDLR mice on HFD; NAC months 3-5 (moderate AS)) was “improved”, the fractional valve opening (LDLR mice on HFD; NAC months 3-5 (moderate AS)) was “improved” and the “WSS (wall shear stress)” value (LDLR mice on HFD; NAC months 5-6 (severe AS)) was “improved”. For the same molecule, the fractional valve opening (LDLR mice on HFD; NAC months 5-6 (severe AS)) was “improved”, the “effect on AS” value (LDLR mice on HFD; long-term NAC treatment (1-6 months) (data not shown)) was “very little to no effect” and the “atherosclerotic plaque (adverse effect)” value (LDLR mice on HFD; mouse, in vivo) was “increased atherosclerotic plaque”. For the same molecule, the “heart function (adverse effect)” value (LDLR mice on HFD; mouse, in vivo) was “deterioration of heart function”, the “mild to moderate AS progression” value (LDLR mice on HFD; short-term NAC treatment from 2-3 months (data not shown)) was “halted” and the AS progression [3] was “little to no further reduction; also recorded: did not show any effect”.
